From patent publication US20240270762A1, “PENICILLIN-BINDING PROTEIN INHIBITORS” (priority 2021, published 2024) come the findings set out here.

One experiment has as its system N. gonorrhoeae WHO K. Put plainly: Liquid broth MIC in Fastidious broth. To be noted: Neisseria gonorrhoeae, read-out: Minimum Inhibitory Concentration (MIC), N. gonorrhoeae WHO K.
The subject of a further experiment is N. gonorrhoeae FA1090. Put plainly: Liquid broth MIC in Fastidious broth. The conditions noted are these: Neisseria gonorrhoeae, FA1090, read-out: Minimum Inhibitory Concentration (MIC), N. gonorrhoeae FA 1090.
For the next experiment, the system named is N. gonorrhoeae WHO Z. Put plainly: Liquid broth MIC in Fastidious broth. The conditions noted are these: Neisseria gonorrhoeae, read-out: Minimum Inhibitory Concentration (MIC), N. gonorrhoeae WHO Z.
A further experiment deals with P. aeruginosa ATCC 27853. Put plainly: microbe, parasite or virus in culture. The format is cell-based. To be noted: Pseudomonas aeruginosa, ATCC27853, read-out: MIC P. aeruginosa ATCC 27853.
For another experiment, the system named is K. pneumoniae UMM. Briefly: microbe, parasite or virus in culture. In kind it is cell-based. To be noted: Klebsiella pneumoniae, read-out: MIC K. pneumoniae UMM.
For experiment [1], the target named is T1, PBP2 from Neisseria gonorrhoeae (FA19) (Neisseria gonorrhoeae, UniProt P08149).
T1 construct: made in house
T1 sequence (P08149 whole entry): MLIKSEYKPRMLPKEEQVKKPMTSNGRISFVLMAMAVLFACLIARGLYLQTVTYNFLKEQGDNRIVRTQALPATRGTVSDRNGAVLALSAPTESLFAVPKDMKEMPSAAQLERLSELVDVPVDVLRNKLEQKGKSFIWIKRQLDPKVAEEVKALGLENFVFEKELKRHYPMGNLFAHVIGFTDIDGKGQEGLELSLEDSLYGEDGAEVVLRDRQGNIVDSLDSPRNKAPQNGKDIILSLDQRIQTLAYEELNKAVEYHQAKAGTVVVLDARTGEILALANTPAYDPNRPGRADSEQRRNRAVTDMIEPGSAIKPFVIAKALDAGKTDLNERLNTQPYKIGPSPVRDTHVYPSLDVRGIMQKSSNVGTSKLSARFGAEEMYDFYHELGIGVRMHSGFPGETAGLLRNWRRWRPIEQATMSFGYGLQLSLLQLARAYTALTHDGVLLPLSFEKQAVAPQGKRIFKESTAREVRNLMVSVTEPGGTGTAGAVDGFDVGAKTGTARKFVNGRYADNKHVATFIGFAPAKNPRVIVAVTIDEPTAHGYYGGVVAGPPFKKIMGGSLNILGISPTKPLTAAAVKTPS
Put plainly: Bocillin-FL fluorescence polarization competition binding, N. gonorrhoeae PBP2. The conditions noted are these: fluorescence polarization competition binding assay using Bocillin-FL, read-out: N. gonorrhoeae PBP2 Potency. An outline of the steps: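 Fluorescence polarization competition with 0.1 μM Bocillin-FL (fluorescent penicillin V) against 0.25 μM N. gonorrhoeae FA19 PBP2 in 50 mM Hepes pH 8.0, 300 mM NaCl, 10% glycerol. Boronic acid inhibitors were preincubated with PBP, then Bocillin-FL was added and FP read (490/520 nm) up to 60 min. EC50 is the concentration halving PBP-bound Bocillin-FL.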
Background: Fluorescence polarisation rises when a labelled molecule tumbles more slowly, as on binding a larger partner.

Another experiment has as its system E. coli 901C. Put plainly: microbe, parasite or virus in culture. The format is cell-based. The conditions noted are these: Escherichia coli, read-out: MIC E. coli 901C.
A further experiment relates to N. gonorrhoeae WHO G. Briefly: Liquid broth MIC in Fastidious broth. To be noted: Neisseria gonorrhoeae, read-out: Minimum Inhibitory Concentration (MIC), N. gonorrhoeae WHO G.
Another experiment relates to E. coli D22. Briefly: microbe, parasite or virus in culture. The conditions noted are these: Escherichia coli, D22, read-out: MIC E. coli D22. The format is cell-based.
For a further experiment, the system named is N. gonorrhoeae WHO L. Briefly: Liquid broth MIC in Fastidious broth. The conditions noted are these: Neisseria gonorrhoeae, read-out: Minimum Inhibitory Concentration (MIC), N. gonorrhoeae WHO L.
Another experiment deals with P. aeruginosa ATCC 35151. Briefly: microbe, parasite or virus in culture. In kind it is cell-based. To be noted: Pseudomonas aeruginosa, ATCC35151, read-out: MIC P. aeruginosa ATCC 35151.
The next experiment has as its system E. coli AG100. Briefly: microbe, parasite or virus in culture. The conditions noted are these: Escherichia coli, AG100, read-out: MIC E. coli AG100. In kind it is cell-based.
A further experiment relates to K. pneumoniae SI-117. Briefly: microbe, parasite or virus in culture. In kind it is cell-based. To be noted: Klebsiella pneumoniae, SI117, read-out: MIC K. pneumoniae SI-117.
The subject of another experiment is N. gonorrhoeae MS11. Briefly: Liquid broth MIC in Fastidious broth. The conditions noted are these: Neisseria gonorrhoeae, MS11, read-out: Minimum Inhibitory Concentration (MIC), N. gonorrhoeae MS11.

Values after ≈ are worked out from the molar mass of the structure shown. Bounds are passed on as bounds.

Take `CS(=O)(=O)N1CCC[C@@H]1C(=O)N[C@H](C(=O)N[C@H]1Cc2cccc(C(=O)O)c2OB1O)c1ccc(P(=O)(O)O)cc1` [Example 34, (R)-2-hydroxy-3-((S)-2-((R)-1-(methylsulfonyl)pyrrolidine-2-carboxamido)-2-(4-phosphonophenyl)acetamido)-3,4-dihydro-2H-benzo[e][1,2]oxaborinine-8-carboxylic acid]: the MIC was 16 to 32 µg/mL (≈ 26.9 to 53.8 µM) with N. gonorrhoeae WHO K; 4 to 8 µg/mL (≈ 6.72 to 13.4 µM) with N. gonorrhoeae FA1090; 16 to 32 µg/mL (≈ 26.9 to 53.8 µM) in the experiment with N. gonorrhoeae WHO Z; more than 128 µg/mL in the experiment on P. aeruginosa ATCC 27853; more than 128 µg/mL in the experiment with K. pneumoniae UMM; 8 to 16 µg/mL (≈ 13.4 to 26.9 µM) with E. coli 901C. The MIC with N. gonorrhoeae WHO G was 4 to 8 µg/mL (≈ 6.72 to 13.4 µM); in the experiment on E. coli D22 it was 32 to 64 µg/mL (≈ 53.8 to 108 µM); with N. gonorrhoeae WHO L it was 16 to 32 µg/mL (≈ 26.9 to 53.8 µM); in the experiment on P. aeruginosa ATCC 35151, 8 to 16 µg/mL (≈ 13.4 to 26.9 µM); with E. coli AG100 it was more than 128 µg/mL; in the experiment on K. pneumoniae SI-117, more than 128 µg/mL. For the same compound, in the experiment on N. gonorrhoeae MS11, the MIC lay within 16 to 32 µg/mL (≈ 26.9 to 53.8 µM). In addition, the EC50 in experiment [1] lay within 50 to 250 µM.

As for `CS(=O)(=O)N1CCC[C@@H]1C(=O)N[C@@H](C(=O)N[C@H]1Cc2cccc(C(=O)O)c2OB1O)c1ccc(P(=O)(O)O)cc1` [Example 35, (R)-2-hydroxy-3-((R)-2-((R)-1-(methylsulfonyl)pyrrolidine-2-carboxamido)-2-(4-phosphonophenyl)acetamido)-3,4-dihydro-2H-benzo[e][1,2]oxaborinine-8-carboxylic acid], the MIC in the experiment with N. gonorrhoeae WHO K is 4 to 8 µg/mL (≈ 6.72 to 13.4 µM); in the experiment with N. gonorrhoeae FA1090 it was less than 1 µg/mL; with N. gonorrhoeae WHO Z it was 4 to 8 µg/mL (≈ 6.72 to 13.4 µM); in the experiment on P. aeruginosa ATCC 27853 it was more than 128 µg/mL; in the experiment with K. pneumoniae UMM it was more than 128 µg/mL; with E. coli 901C it was 8 to 16 µg/mL (≈ 13.4 to 26.9 µM). Further, the MIC with N. gonorrhoeae WHO G is 1 to 2 µg/mL (≈ 1.68 to 3.36 µM); with E. coli D22, 8 to 16 µg/mL (≈ 13.4 to 26.9 µM); in the experiment on N. gonorrhoeae WHO L it was 16 to 32 µg/mL (≈ 26.9 to 53.8 µM); in the experiment with P. aeruginosa ATCC 35151, 2 to 4 µg/mL (≈ 3.36 to 6.72 µM); in the experiment on E. coli AG100 it was more than 128 µg/mL; in the experiment on K. pneumoniae SI-117, more than 128 µg/mL. For the same compound, the MIC in the experiment with N. gonorrhoeae MS11 lay within 1 to 2 µg/mL (≈ 1.68 to 3.36 µM). In addition, the EC50 in experiment [1] was less than 10 µM.

For `O=C(O)c1cccc2c1OB(O)[C@@H](NC(=O)[C@@H](NC(=O)N1CCCCC1=O)c1ccc(P(=O)(O)O)cc1)C2` [Example 36, (R)-2-hydroxy-3-((S)-2-(2-oxopiperidine-1-carboxamido)-2-(4-phosphonophenyl)acetamido)-3,4-dihydro-2H-benzo[39e][1,2]oxaborinine-8-carboxylic acid], the MIC in the experiment with N. gonorrhoeae WHO K was 16 to 32 µg/mL (≈ 29.3 to 58.7 µM); in the experiment with N. gonorrhoeae FA1090 it was 1 to 2 µg/mL (≈ 1.83 to 3.67 µM); in the experiment on N. gonorrhoeae WHO Z, 16 to 32 µg/mL (≈ 29.3 to 58.7 µM); in the experiment with P. aeruginosa ATCC 27853, more than 128 µg/mL; in the experiment on K. pneumoniae UMM it was more than 128 µg/mL; with E. coli 901C, 8 to 16 µg/mL (≈ 14.7 to 29.3 µM). Also, the MIC in the experiment on N. gonorrhoeae WHO G is 4 to 8 µg/mL (≈ 7.34 to 14.7 µM); in the experiment with E. coli D22, 32 to 64 µg/mL (≈ 58.7 to 117 µM); in the experiment with N. gonorrhoeae WHO L, 16 to 32 µg/mL (≈ 29.3 to 58.7 µM); with P. aeruginosa ATCC 35151 it was 8 to 16 µg/mL (≈ 14.7 to 29.3 µM); with E. coli AG100, more than 128 µg/mL; with K. pneumoniae SI-117, more than 128 µg/mL. In the experiment on N. gonorrhoeae MS11, the MIC fell in the range of 16 to 32 µg/mL (≈ 29.3 to 58.7 µM). For the same compound, in experiment [1], the EC50 is 10 to 50 µM.

Take `O=C(O)c1cccc2c1OB(O)[C@@H](NC(=O)[C@H](NC(=O)N1CCCCC1=O)c1ccc(P(=O)(O)O)cc1)C2` [Example 37, (R)-2-hydroxy-3-((R)-2-(2-oxopiperidine-1-carboxamido)-2-(4-phosphonophenyl)acetamido)-3,4-dihydro-2H-benzo[e][1,2]oxaborinine-8-carboxylic acid]: the MIC was 4 to 8 µg/mL (≈ 7.34 to 14.7 µM) with N. gonorrhoeae WHO K; less than 1 µg/mL in the experiment on N. gonorrhoeae FA1090; 1 to 2 µg/mL (≈ 1.83 to 3.67 µM) in the experiment on N. gonorrhoeae WHO Z; more than 128 µg/mL with P. aeruginosa ATCC 27853; more than 128 µg/mL in the experiment with K. pneumoniae UMM; less than 1 µg/mL in the experiment with E. coli 901C. For the same compound, the MIC is less than 1 µg/mL with N. gonorrhoeae WHO G; 8 to 16 µg/mL (≈ 14.7 to 29.3 µM) in the experiment with E. coli D22; 16 to 32 µg/mL (≈ 29.3 to 58.7 µM) with N. gonorrhoeae WHO L; less than 1 µg/mL with P. aeruginosa ATCC 35151; more than 128 µg/mL with E. coli AG100; more than 128 µg/mL in the experiment with K. pneumoniae SI-117. In addition, in the experiment on N. gonorrhoeae MS11, the MIC is 1 to 2 µg/mL (≈ 1.83 to 3.67 µM). The EC50 in experiment [1] is less than 10 µM.
